In one data set the target is T1, human DGAT1 (Homo sapiens, UniProt O75907).
T1 construct: made in house; host or cells: insect cells (sf9, sf21 or High Five) infected with baculovirus; total cell membranes
T1 sequence (O75907 1-488): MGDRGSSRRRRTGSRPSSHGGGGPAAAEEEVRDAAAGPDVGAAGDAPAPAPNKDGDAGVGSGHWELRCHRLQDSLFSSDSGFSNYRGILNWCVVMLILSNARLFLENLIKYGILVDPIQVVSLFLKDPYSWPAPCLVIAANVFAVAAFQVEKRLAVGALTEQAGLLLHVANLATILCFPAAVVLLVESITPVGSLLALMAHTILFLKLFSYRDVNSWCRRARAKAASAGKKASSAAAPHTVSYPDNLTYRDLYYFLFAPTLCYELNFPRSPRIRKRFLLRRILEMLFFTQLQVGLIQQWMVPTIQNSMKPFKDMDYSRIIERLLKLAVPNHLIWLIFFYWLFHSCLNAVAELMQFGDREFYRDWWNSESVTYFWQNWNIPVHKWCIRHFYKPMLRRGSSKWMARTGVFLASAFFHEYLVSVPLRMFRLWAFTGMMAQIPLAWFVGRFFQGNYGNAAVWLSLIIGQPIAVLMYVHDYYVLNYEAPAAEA
The experiment in a line: DGAT Scintillation Proximity Assay (SPA) with membranes of insect cells expressing human flagtag DGAT1. Type of data set: biochemical. Particulars: read-out: hDGAT1 IC50. The procedure, abridged: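 Membranes (0.2 μg/well) from insect cells expressing human flag-tagged DGAT1 incubated with 10 μM compound and 200 μM dioleoyl glycerol substrate; mercuric chloride as inhibition control. Reaction stopped with WGA SPA beads in mercuric chloride, overnight bead coupling, then scintillation proximity signal read.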

Broadly, the IC50 is the concentration that inhibits the measured activity by half. Broadly, the melting point is the temperature of the solid-liquid transition.

Take `Cc1nc(N)c2c(n1)OC(C)(C)C(c1ccc([C@H]3CC[C@H](CNC(=O)C(C)(C)CO)CC3)cc1)=N2` [Example 2-139]: the melting point was in the range of 249 to 250 °C. Moreover, the IC50 on human DGAT1 was 10 to 100 nM.

`CC1(C)Oc2ncnc(N)c2N=C1c1ccc([C@H]2CC[C@H](C(=O)NC(CO)C(=O)O)CC2)cc1` (stereo partly drawn) [Example 2-213] showed a melting point greater than 250 °C. For the same compound, the IC50 at human DGAT1 was in the range of 10 to 100 nM.

Consider `CC1(C)Oc2ncnc(N)c2N=C1c1ccc([C@H]2CC[C@H](CCN3CCN(Cc4ccccc4)CC3)CC2)cc1` [Example 2-88], for which the melting point fell in the range of 175 to 176 °C. Moreover, the IC50 at human DGAT1 was greater than 100 nM.

Turning to `Nc1ncnc2c1N=C(c1cccc(Br)c1)CO2` [Example 1-7], the melting point was greater than 220 °C. Besides, the concentration for half-maximal inhibition (IC50) on human DGAT1 was greater than 100 nM.

`CC1(C)Oc2ncnc(N)c2N=C1c1ccc([C@H]2CC[C@H](Cc3nc4cc(Cl)ccc4[nH]3)CC2)cc1` [Example 2-122] returned a melting point greater than 230 °C. The IC50 at human DGAT1 fell in the range of 10 to 100 nM.

`CC(C)(C)OC(=O)CNC(=O)C=C1CCC(c2ccc(C3=Nc4c(N)ncnc4OC3(C)C)cc2)CC1` (stereo not drawn) [Example 2-52] had a melting point of 212 to 215 °C. Further, the IC50 on human DGAT1 was 10 to 100 nM.

`Cc1nc(N)c2c(n1)OC(C)(C)C(c1ccc(C3CC(CC(=O)O)C3)cc1)=N2` (stereo not drawn) [Example 2-146]: the melting point was greater than 250 °C. At human DGAT1, the IC50 lay within 10 to 100 nM.

With `Cc1nc(N)c2c(n1)OC(C)(C)C(c1ccc([C@H]3CC[C@H](CC(C)(C)C(=O)O)CC3)cc1)=N2` [Example 2-202], the melting point was greater than 225 °C. In addition, the IC50 on human DGAT1 lay within 10 to 100 nM.

The compound `CC1(C)Oc2ncnc(N)c2N=C1c1ccc([C@H]2CC[C@H](CCC(=O)N3CCC[C@H]3CO)CC2)cc1` [Example 2-178] displayed a melting point of 143 to 160 °C. The half-inhibitory concentration (IC50) on human DGAT1 lay in the range of 10 to 100 nM.

Turning to `Nc1ncnc2c1N=C(c1cccnc1)CO2` [Example 1-17], the melting point is greater than 220 °C. Moreover, the IC50 on human DGAT1 is greater than 100 nM.

On to `Cc1ncc(CC[C@H]2CC[C@H](c3ccc(C4=Nc5c(N)ncnc5OC4(C)C)cc3)CC2)[nH]1` [Example 2-185], for which the melting point was in the range of 193 to 194 °C. On human DGAT1, the IC50 lay within 10 to 100 nM.

For the compound `CC1(C)Oc2ncnc(N)c2N=C1c1ccc([C@H]2CC[C@H](Cn3ccnc3)CC2)cc1` [Example 2-108], the melting point fell in the range of 202 to 203 °C. For the same compound, the IC50 on human DGAT1 is 10 to 100 nM.

`CCc1ccc(C2=Nc3c(N)ncnc3OC2)cc1` [Example 1-19] had a melting point of 191 to 193 °C. For the same compound, the IC50 at human DGAT1 was greater than 100 nM.

For the compound `CC1(C)Oc2ncnc(N)c2N=C1c1ccc([C@H]2CC[C@H](Cc3cnc(C(C)(C)C)[nH]3)CC2)cc1` [Example 2-119], the melting point is greater than 250 °C. Also, on human DGAT1, the IC50 is 10 to 100 nM.

`Nc1ncnc2c1N=C(c1ccc(Cl)cc1Cl)CO2` [Example 1-28] returned a melting point of 218 to 220 °C. In addition, the IC50 at human DGAT1 was greater than 100 nM.

In the case of `CC1(C)Oc2ncnc(N)c2N=C1c1ccc([C@H]2CC[C@H](CC(=O)N3CCCC3)CC2)cc1` [Example 2-94], the melting point lay in the range of 232 to 233 °C. Moreover, the half-maximal inhibitory concentration (IC50) on human DGAT1 lay in the range of 10 to 100 nM.

For the compound `Cc1nc(N)c2c(n1)OC(C)(C)C(c1ccc([C@H]3CC[C@H](CC(=O)O)CC3)c(N)c1)=N2` [Example 6-3], the melting point was 280 °C (dec.). For the same compound, the IC50 at human DGAT1 was in the range of 10 to 100 nM.

In turn, `Cc1nc(N)c2c(n1)OC(C)(C)C(c1ccc([C@H]3CC[C@H](Cc4n[nH]c(=O)[nH]4)CC3)cc1)=N2` [Example 2-147] yielded a melting point greater than 230 °C. Moreover, the IC50 on human DGAT1 was 10 to 100 nM.

With `CC1(C)Oc2ncnc(N)c2N=C1c1ccc([C@H]2CC[C@H](C(=O)N3CCC(O)CC3)CC2)cc1` [Example 2-237], the melting point lay within 250 to 252 °C. At human DGAT1, the concentration for half-maximal inhibition (IC50) fell in the range of 10 to 100 nM.

In turn, `CCN(C)C(=O)CC[C@H]1CC[C@H](c2ccc(C3=Nc4c(N)ncnc4OC3(C)C)cc2)CC1` [Example 2-188] registered a melting point of 173 to 175 °C. The concentration for half-maximal inhibition (IC50) at human DGAT1 was in the range of 10 to 100 nM.

`CC(C)(NC(=O)C[C@H]1CC[C@H](c2ccc(C3Nc4c(N)ncnc4OC3(C)C)cc2)CC1)C(=O)O` (stereo partly drawn) [Example 2-73] yielded a melting point greater than 250 °C. Besides, the IC50 on human DGAT1 was in the range of 10 to 100 nM.

For `CCCCc1ccc(C2=Nc3c(N)ncnc3OC2)cc1` [Example 1-21], the melting point lay within 183 to 186 °C. For the same compound, the IC50 at human DGAT1 is greater than 100 nM.

For the compound `Cc1nc(N)c2c(n1)OC(C)(C)C(c1ccc([C@H]3CC[C@H](C(=O)N4C[C@@H](O)[C@@H](O)C4)CC3)cc1)=N2` [Example 2-258], the melting point is greater than 250 °C. Also, on human DGAT1, the IC50 lay within 10 to 100 nM.

`CN(CCO)C(=O)CC[C@H]1CC[C@H](c2ccc(C3=Nc4c(N)ncnc4OC3(C)C)cc2)CC1` [Example 2-179] came in with a melting point of 168 to 170 °C. Further, on human DGAT1, the concentration for half-maximal inhibition (IC50) lay within 10 to 100 nM.

The compound `Cc1nc(N)c2c(n1)OC(C)(C)C(c1ccc([C@H]3CC[C@H](CN4CCOC4=O)CC3)c(Cl)c1)=N2` [Example 6-17] had a melting point greater than 250 °C. Besides, at human DGAT1, the IC50 is greater than 100 nM.

In the case of `CC1(C)Oc2ncnc(N)c2N=C1c1ccc([C@H]2CC[C@H](CC(=O)N3CC[C@@H](O)C3)CC2)cc1` [Example 2-103], the melting point is 231 to 232 °C. Besides, at human DGAT1, the IC50 is 10 to 100 nM.

Consider `Cc1nc(N)c2c(n1)OC(C)(C)C(c1ccc([C@H]3CC[C@H](C(=O)Nc4nn[nH]n4)CC3)cc1)=N2` [Example 2-264], for which the melting point is greater than 250 °C. Moreover, at human DGAT1, the IC50 fell in the range of 10 to 100 nM.

Take `CC1(C)Oc2ncnc(N)c2N=C1c1ccc([C@H]2CC[C@H](CCN3CCCCC3)CC2)cc1` [Example 2-82]: the melting point fell in the range of 209 to 210 °C. Besides, the IC50 on human DGAT1 was greater than 100 nM.

`Cc1nc(N)c2c(n1)OC(C)(C)C(c1ccc([C@H]3CC[C@H](CNC(=O)CO)CC3)c(Cl)c1)=N2` [Example 6-2] displayed a melting point of 229 to 232 °C. Moreover, the half-maximal inhibitory concentration (IC50) at human DGAT1 was 10 to 100 nM.

With `CC1(C)Oc2ncnc(N)c2N=C1c1ccc([C@H]2CC[C@H](CN3C(=O)c4ccccc4C3=O)CC2)cc1` [Example 2-217], the melting point lay in the range of 225 to 227 °C. The IC50 on human DGAT1 was in the range of 10 to 100 nM.

With `CC1(C)Oc2ncnc(N)c2NC1c1ccc(-c2ccc(CC(=O)O)cc2)cc1` (stereo not drawn) [Example 2-54], the melting point is 267 °C (dec.). In addition, the concentration for half-maximal inhibition (IC50) on human DGAT1 is 10 to 100 nM.

The compound `CC1(C)Oc2ncnc(N)c2N=C1c1ccc2c(c1)CC(CC(=O)O)C2` (stereo not drawn) [Example 2-72] displayed a melting point greater than 250 °C. At human DGAT1, the IC50 was 10 to 100 nM.

As for `Cc1nc(N)c2c(n1)OC(C)(C)C(c1ccc([C@H]3CC[C@H](CC(=O)NS(C)(=O)=O)CC3)cc1)=N2` [Example 2-134], the melting point lay within 225 to 226 °C. On human DGAT1, the IC50 is less than 10 nM.

On to `Cc1nc(N)c2c(n1)OC(C)(C)C(c1ccc([C@H]3CC[C@H](Cc4noc(=O)[nH]4)CC3)c(F)c1)=N2` [Example 6-11], for which the melting point was greater than 282 °C. In addition, the concentration for half-maximal inhibition (IC50) on human DGAT1 lay within 10 to 100 nM.

Turning to `Nc1ncnc2c1N=C(c1ccc(Cl)c(Cl)c1)CO2` [Example 1-27], the melting point was greater than 220 °C. Besides, the IC50 at human DGAT1 was greater than 100 nM.

`CC1(C)Oc2ncnc(N)c2N=C1c1ccc([C@H]2CC[C@H](Cc3cc(O)on3)CC2)cc1` [Example 2-60] returned a melting point of 173 to 175 °C. Further, at human DGAT1, the IC50 fell in the range of 10 to 100 nM.

Compound `CC1(C)Oc2ncnc(N)c2N=C1c1ccc([C@H]2CC[C@H](CNC(=O)OCc3ccccc3)CC2)cc1` [Example 2-61] showed a melting point of 159 to 162 °C. Besides, on human DGAT1, the IC50 lay in the range of 10 to 100 nM.

Take `CC1(C)Oc2ncnc(N)c2N=C1c1ccc([C@H]2CC[C@H](CCNC(=O)[C@@H]3CCCN3)CC2)cc1` [Example 2-182]: the melting point is 167 to 169 °C. Further, on human DGAT1, the concentration for half-maximal inhibition (IC50) lay within 10 to 100 nM.

With `CC1(C)Oc2ncnc(N)c2N=C1c1ccc([C@H]2CC[C@H](CN[C@H]3CC[C@H](O)CC3)CC2)cc1` [Example 2-116], the melting point was greater than 250 °C. Moreover, the IC50 at human DGAT1 was in the range of 10 to 100 nM.

With `CC1(C)Oc2ncnc(N)c2N=C1c1ccc([C@H]2CC[C@H](CCNC(=O)CO)CC2)cc1` [Example 2-176], the melting point fell in the range of 196 to 198 °C. Further, the half-maximal inhibitory concentration (IC50) at human DGAT1 was in the range of 10 to 100 nM.

In turn, `Nc1ncnc2c1N=C(c1ccc(OC(F)(F)F)cc1)CO2` [Example 1-23] came in with a melting point of 209 to 212 °C. Also, on human DGAT1, the IC50 was greater than 100 nM.

`Cc1ncc(C[C@H]2CC[C@H](c3ccc(C4=Nc5c(N)ncnc5OC4(C)C)cc3)CC2)s1` [Example 2-118] had a melting point of 215 to 216 °C. In addition, on human DGAT1, the IC50 was 10 to 100 nM.

In turn, `CC1(C)Oc2ncnc(N)c2N=C1c1ccc([C@H]2CC[C@H](CCO)CC2)cc1` [Example 2-79] showed a melting point of 207 to 208 °C. For the same compound, the IC50 on human DGAT1 was in the range of 10 to 100 nM.

Regarding `CC1(C)Oc2ncnc(N)c2N=C1c1ccc([C@H]2CC[C@H](C(=O)N3CCCC3C(=O)O)CC2)cc1` (stereo partly drawn) [Example 2-208], the melting point was 193 to 194 °C. Also, the IC50 at human DGAT1 lay in the range of 10 to 100 nM.

In the case of `CCOC(=O)N1CCC(NC[C@H]2CC[C@H](c3ccc(C4=Nc5c(N)ncnc5OC4(C)C)cc3)CC2)CC1` [Example 2-115], the melting point fell in the range of 127 to 135 °C. The IC50 on human DGAT1 is greater than 100 nM.

The values are drawn from patent US7244727B2, “Fused bicyclic nitrogen-containing heterocycles” (Japan Tobacco Inc., priority 2002, dated 2007).
